According to patent US11834448B2, “2-amino-quinoline derivatives” (BIRDIE BIOPHARMACEUTICALS, INC., priority 2017, dated 2023):

Assays:
Human PBMCs [1] = assay: Cytokine production in PBMCs: human IL-6 by ELISA; format: cell-based; set-up: key: ″+″ means that there was production of IFNa or IL-6 on PBMC; ″−″means that noproduction of IFNa or IL-6 on PBMC was detected; conditions: compounds tested at concentration of 10 uM; human PBMCs cultured 20-22 hours; supernatant ELISA
Method: (§1) The compound functionality was tested for some of the compounds prepared by stimulation and determination of cytokine production in PBMCs.
(§2) Human PBMCs were prepared from buffy coat obtained from healthy volunteer donor by Ficoll centrifugation and were adjusted to the final cell concentration to 1×10^6 cells/mL.
(§3) For evaluation of compound activities, 1×10^5 PBMCs were plated in a 96-well plate in 100 μl of RPMI 1640 complete medium (cat no. 31800-022, GIBCO by Life Technologies, Grand Island, NY, USA) supplemented with 10% fetal bovine serum, the tested compound was first dissolved in DMSO and further diluted in PBS and RPMI 1640 medium to the final concentration of […] (corresponding to 6.28 μg/mL), then 3-fold serially dilution was made in a 96-well round-bottom plate. 100 μl diluted compound was added to the same volume of 1×10^5 PBMCs plate and cultured for 20-22 hours at 37° C. in a humidified atmosphere of 5% CO2. The supernatant was collected for human IFN-α, IL12(p70) and IL-6 analysis by ELISA assay according to the manufacturer's instructions (Mabtech AB, Sweden). Resiquimod was used as a positive control.

Human PBMCs [2] = assay: Cytokine production in PBMCs: human IFN-α by ELISA; format: cell-based; set-up: key: ″+″ means that there was production of IFNa or IL-6 on PBMC; ″−″means that noproduction of IFNa or IL-6 on PBMC was detected; conditions: compounds tested at concentration of 10 uM; human PBMCs cultured 20-22 hours; supernatant ELISA
Method: as §1, §2, §3

Compound | Production of IL−6 on PBMC (Human PBMCs [1]) | Production of IFNa on PBMC (Human PBMCs [2])
CCOCc1nc2c(N)nc3cccc(OCCC(C)C)c3c2[nH]1 [Compound 6, 2-(ethoxymethyl)-9-(isopentyloxy)-1H-imidazo[4,5-c]quinolin-4-amine] | + | 
CCOCc1nc2c(N)nc3cccc(OCCOCCNS(C)(=O)=O)c3c2n1C [Compound 20, N-(2-(2-((4-amino-2-(ethoxymethyl)-1-methyl-1H-imidazo[4,5-c]quinolin-9-yl)oxy)ethoxy)ethyl)-methanesulfonamide] | + | +
CCOCc1nc2c(N)nc3cccc(OCCOC(C)C)c3c2[nH]1 [Compound 11, 2-(ethoxymethyl)-9-(2-isopropoxyethoxy)-1H-imidazo[4,5-c]quinolin-4-amine] | + | +
CCCCCCCCCCCCCCCC(=O)NCCCOc1cccc2nc(N)c3nc(COCC)n(C)c3c12 [Compound 34, N-(3-((4-amino-2-(ethoxymethyl)-1-methyl-1H-imidazo[4,5-c]quinolin-9-yl)oxy)propyl)palmitamide] | + | +
COc1cccc2nc(N)c3nc(CCO)n(CC(C)(C)O)c3c12 [Compound 4, 1-(4-amino-2-(2-hydroxyethyl)-9-methoxy-1H-imidazo[4,5-c]quinolin-1-yl)-2-methylpropan-2-ol] | − | −
CCOCc1nc2c(N)nc3cccc(OC)c3c2n1CC(C)C [Compound 2, 2-(ethoxymethyl)-1-isobutyl-9-methoxy-1H-imidazo[4,5-c]quinolin-4-amine] | + | +
CCOCc1nc2c(N)nc3cccc(OCCC(C)O)c3c2[nH]1 (centres unmarked) [Compound 7, 4-((4-amino-2-(ethoxymethyl)-1H-imidazo[4,5-c]quinolin-9-yl)oxy)butan-2-ol] | + | 
CCOCc1nc2c(N)nc3cccc(OCCC(C)C)c3c2n1C [Compound 17, 2-(ethoxymethyl)-9-(isopentyloxy)-1-methyl-1H-imidazo[4,5-c]quinolin-4-amine] | + | +
CCOCc1nc2c(N)nc3cccc(OCCCN)c3c2n1C [Compound 36, 9-(3-aminopropoxy)-2-(ethoxymethyl)-1-methyl-1H-imidazo[4,5-c]quinolin-4-amine] | + | +
CCCCCCCCCCCCCCCCCC(=O)NCCCCOc1cccc2nc(N)c3nc(COCC)n(C)c3c12 [Compound 25, N-(4-((4-amino-2-(ethoxymethyl)-1-methyl-1H-imidazo[4,5-c]quinolin-9-yl)oxy)butyl)-stearamide] | + | +
CCOCc1nc2c(N)nc3cccc(OCCCNS(C)(=O)=O)c3c2n1C [Compound 19, N-(3-((4-amino-2-(ethoxymethyl)-1-methyl-1H-imidazo[4,5-c]quinolin-9-yl)oxy)propyl)methanesulfonamide] | + | +
CCOCc1nc2c(N)nc3cccc(OC4CCNCC4)c3c2n1C [Compound 29, 2-(ethoxymethyl)-1-methyl-9-(piperidin-4-yloxy)-1H-imidazo[4,5-c]quinolin-4-amine] | + | +
CCOCc1nc2c(N)nc3cccc(OC)c3c2n1CCC(C)(C)O [Compound 14, 4-(4-amino-2-(ethoxymethyl)-9-methoxy-1H-imidazo[4,5-c]quinolin-1-yl)-2-methylbutan-2-ol] | + | +
CCOCc1nc2c(N)nc3cccc(OCCC(C)(C)O)c3c2n1CC(C)C [Compound 12, 4-((4-amino-2-(ethoxymethyl)-1-isobutyl-1H-imidazo[4,5-c]quinolin-9-yl)oxy)-2-methylbutan-2-ol] | + | +
CCCCn1cc2c(n1)c(N)nc1cccc(OCCC(C)C)c12 [Compound 33, 2-butyl-9-(isopentyloxy)-2H-pyrazolo[3,4-c]quinolin-4-amine] | + | −
CCCCCCCCCCCCCCCC(=O)NCCCCOc1cccc2nc(N)c3nc(COCC)n(C)c3c12 [Compound 35, N-(4-((4-amino-2-(ethoxymethyl)-1-methyl-1H-imidazo[4,5-c]quinolin-9-yl)oxy)butyl)palmitamide] | + | +
CCOCc1nc2c(N)nc3cccc(OCCC(C)(C)O)c3c2[nH]1 [Compound 5, 4-((4-amino-2-(ethoxymethyl)-1H-imidazo[4,5-c]quinolin-9-yl)oxy)-2-methylbutan-2-ol] | + | +

Compound | Production of IL−6 on PBMC (Human PBMCs [1]) | Production of IFNa on PBMC (Human PBMCs [2])
CCOCc1nc2c(N)nc3cccc4c3c2n1CC(=O)CO4 [Compound 46, 2-amino-12-(ethoxymethyl)-5H-3,4-(azenometheno)[1,5]oxazocino[4,3,2-de]quinolin-6(7H)-one] | + | 
CCOCc1nc2c(N)nc3cccc(OCC(C)(C)O)c3c2n1C [Compound 38, 1-((4-amino-2-(ethoxymethyl)-1-methyl-1H-imidazo[4,5-c]quinolin-9-yl)oxy)-2-methylpropan-2-ol] | + | +
CCOCc1nc2c(N)nc3cccc4c3c2n1CCO4 [Compound 39, 2-(ethoxymethyl)-3,4-dihydro-5-oxa-1,2a,9-triazanaphtho[2,1,8-cde]azulen-10-amine] | + | +
CCOCc1nc2c(N)nc3cccc(OCCOC(C)C)c3c2n1C [Compound 16, 2-(ethoxymethyl)-9-(2-isopropoxyethoxy)-1-methyl-1H-imidazo[4,5-c]quinolin-4-amine] | + | +
COCCc1nc2c(N)nc3cccc(OC)c3c2n1CC(C)(C)O [Compound 3, 1-(4-amino-9-methoxy-2-(2-methoxyethyl)-1H-imidazo[4,5-c]quinolin-1-yl)-2-methylpropan-2-ol] | − | −
CCOCc1nc2c(N)nc3cccc(OCC(C)C)c3c2[nH]1 [Compound 15, 2-(ethoxymethyl)-9-isobutoxy-1H-imidazo[4,5-c]quinolin-4-amine] | + | +
CCCCCCCCCCCCCCCCCC(=O)NCCCOc1cccc2nc(N)c3nc(COCC)n(C)c3c12 [Compound 23, N-(3-((4-amino-2-(ethoxymethyl)-1-methyl-1H-imidazo[4,5-c]quinolin-9-yl)oxy)propyl)stearamide] | + | +
CC(C)CCOc1cccc2nc(N)c3nn(CCC(C)C)cc3c12 [Compound 32, 2-isopentyl-9-(isopentyloxy)-2H-pyrazolo[3,4-c]quinolin-4-amine] | − | −
CCOCc1nc2c(N)nc3cccc(OC)c3c2n1CCOC(C)C [Compound 13, 2-(ethoxymethyl)-1-(2-isopropoxyethyl)-9-methoxy-1H-imidazo[4,5-c]quinolin-4-amine] | + | +
CCOCc1nc2c(N)nc3cccc4c3c2n1[C@H](C(C)(C)O)CO4 [Compound 41, (S)-2-(10-amino-2-(ethoxymethyl)-3,4-dihydro-5-oxa-1,2a,9-triazanaphtho[2,1,8-cde]azulen-3-yl)propan-2-ol] | + | 
COCCc1nc2c(N)nc3cccc(OCCC(C)(C)O)c3c2[nH]1 [Compound 9, 4-((4-amino-2-(2-methoxyethyl)-1H-imidazo[4,5-c]quinolin-9-yl)oxy)-2-methylbutan-2-ol] | + | 
CCOCc1nc2c(N)nc3cccc4c3c2n1C[C@H](O)CO4 [Compound 45, (S)-2-amino-12-(ethoxymethyl)-6,7-dihydro-5H-3,4-(azenometheno)[1,5]oxazocino-[4,3,2-de]quinolin-6-ol] | + | 
CCOCc1nc2c(N)nc3cccc4c3c2n1[C@@H](C(C)(C)O)CO4 [Compound 40, (R)-2-(10-amino-2-(ethoxymethyl)-3,4-dihydro-5-oxa-1,2a,9-triazanaphtho[2,1,8-cde]azulen-3-yl)propan-2-ol] | − | 
CCOCc1nc2c(N)nc3cccc4c3c2n1C[C@@H](O)CO4 [Compound 44, (R)-2-amino-12-(ethoxymethyl)-6,7-dihydro-5H-3,4-(azenometheno)[1,5]oxazocino[4,3,2-de]quinolin-6-ol] | − | 
CCOCc1nc2c(N)nc3cccc4c3c2n1C[C@@](C)(O)CO4 [Compound 43, (R)-2-amino-12-(ethoxymethyl)-6-methyl-6,7-dihydro-5H-3,4-(azenometheno)[1,5]oxazocino[4,3,2-de]quinolin-6-ol] | − | 
CCOCc1nc2c(N)nc3cccc(OCCC(C)(C)O)c3c2n1C [Compound 10, 4-((4-amino-2-(ethoxymethyl)-1-methyl-1H-imidazo[4,5-c]quinolin-9-yl)oxy)-2-methylbutan-2-ol] | + | 
